The values below come from US20230382925A1, “MODULATORS OF CYSTIC FIBROSIS TRANSMEMBRANE CONDUCTANCE REGULATOR” (VERTEX PHARMACEUTICALS INCORPORATED, priority 2020, published 2023).

SMILES strings stand for the structures. Bounds are passed on as bounds.

In the assay the target is CFTR (Homo sapiens, UniProt P13569). Briefly: Membrane Potential Dye, Enteroid Assay A. It counts as cell-based. The conditions noted are these: for EC50: read-out: Ent. A EC50. As for the experimental part:
Base medium (ADF+++) consisted of Advanced […], 2 mM Glutamax, 10 mM HEPES, 1 μg/mL penicillin/streptomycin.
Intestinal enteroid maintenance medium (IEMMN) consisted of ADF+++, 1× B27 supplement, 1× N2 supplement, 1.25 mM N-acetyl cysteine, 10 mM Nicotinamide, 50 ng/mL hEGF, 10 nM Gastrin, 1 μg/mL hR-spondin-1, 100 ng/mL hNoggin, TGF-b type 1 inhibitor A-83-01, 100 μg/mL Primocin, 10 μM P38 MAPK inhibitor SB202190.
Bath 1 Buffer consisted of 1 mM MgCl2, 160 mM NaCl, 4.5 mM KCl, 10 mM HEPES, 10 mM Glucose, 2 mM CaCl2).
Chloride Free Buffer consisted of 1 mM Magnesium Gluconate, 2 mM Calcium Gluconate, 4.5 mM Potassium Gluconate, 160 mM Sodium Gluconate, 10 mM HEPES, 10 mM Glucose.
Bath 1 Dye Solution consisted of Bath 1 Buffer, 0.04% Pluronic F127, 20 μM Methyl Oxonol, 30 μM CaCCinh-A01, 30 μM Chicago Sky Blue.
Chloride Free Dye Solution consisted of Chloride Free Buffer, 0.04% Pluronic F127, 20 μM Methyl Oxonol, 30 μM CaCCinh-A01, 30 μM Chicago Sky Blue.
Chloride Free Dye Stimulation Solution consisted of Chloride Free Dye Solution, 10 μM forskolin, 100 μM IBMX, and 300 nM Compound III.
Human intestinal epithelial enteroid cells were obtained from the Hubrecht Institute for Developmental Biology and Stem Cell Research, Utrecht, The Netherlands and expanded in T-Flasks as previously described (Dekkers J F, Wiegerinck C L, de Jonge H R, Bronsveld I, Janssens H M, de Winter-de Groot K M, Brandsma A M, de Jong N W M, Bijvelds M J C, Scholte B J, Nieuwenhuis E E S, van den Brink S, Clevers H, van der Ent C K, Middendorp S and M Beekman J M. A functional CFTR assay using primary cystic fibrosis intestinal organoids. Nat Med. 2013 July; 19(7):939-45.).
3. Enteroid Cell Harvesting and Seeding
Cells were recovered in cell recovery solution, collected by centrifugation at 650 rpm for 5 min at 4° C., resuspended in TrypLE and incubated for 5 min at 37° C. Cells were then collected by centrifugation at 650 rpm for 5 min at 4° C. and resuspended in IEMM containing 10 μM ROCK inhibitor (RI). The cell suspension was passed through a 40 μm cell strainer and resuspended at 1×10^6 cells/mL in IEMM containing 10 μM RI. Cells were seeded at 5000 cells/well into multi-well plates and incubated for overnight at 37° C., 95% humidity and 5% CO2 prior to assay.
4. Membrane Potential Dye, Enteroid Assay A
Enteroid cells were incubated with test compound in IEMM for 18-24 hours at 37° C., 95% humidity and 5% CO2. […] Briefly, cells were washed 5 times in Bath 1 Buffer. Bath 1 Dye Solution was added, and the cells were incubated for 25 min at room temperature. Following dye incubation, cells were washed 3 times in Chloride Free Dye Solution. Chloride transport was initiated by addition of Chloride Free Dye Stimulation Solution and the fluorescence signal was read for 15 min. […] Chloride transport was then expressed as a percentage of the chloride transport following treatment with 3 μM N-[(6-amino-2-pyridyl)sulfonyl]-6-(3-fluoro-5-isobutoxy-phenyl)-2-[(4S)-2,2,4-trimethylpyrrolidin-1-yl]pyridine-3-carboxamide, 3 μM (R)-1-(2,2-difluorobenzo[d][1,3]dioxol-5-yl)-N-(1-(2,3-dihydroxypropyl)-6-fluoro-2-(1-hydroxy-2-methylpropan-2-yl)-1H-indol-5-yl)cyclopropanecarboxamide and 300 nM acute N-[2,4-bis(1,1-dimethylethyl)-5-hydroxyphenyl]-1,4-dihydro-4-oxoquinoline-3-carboxamide triple combination control (% Activity).

Sequence of CFTR (P13569 with tags, fused parts or gaps DEL508-508): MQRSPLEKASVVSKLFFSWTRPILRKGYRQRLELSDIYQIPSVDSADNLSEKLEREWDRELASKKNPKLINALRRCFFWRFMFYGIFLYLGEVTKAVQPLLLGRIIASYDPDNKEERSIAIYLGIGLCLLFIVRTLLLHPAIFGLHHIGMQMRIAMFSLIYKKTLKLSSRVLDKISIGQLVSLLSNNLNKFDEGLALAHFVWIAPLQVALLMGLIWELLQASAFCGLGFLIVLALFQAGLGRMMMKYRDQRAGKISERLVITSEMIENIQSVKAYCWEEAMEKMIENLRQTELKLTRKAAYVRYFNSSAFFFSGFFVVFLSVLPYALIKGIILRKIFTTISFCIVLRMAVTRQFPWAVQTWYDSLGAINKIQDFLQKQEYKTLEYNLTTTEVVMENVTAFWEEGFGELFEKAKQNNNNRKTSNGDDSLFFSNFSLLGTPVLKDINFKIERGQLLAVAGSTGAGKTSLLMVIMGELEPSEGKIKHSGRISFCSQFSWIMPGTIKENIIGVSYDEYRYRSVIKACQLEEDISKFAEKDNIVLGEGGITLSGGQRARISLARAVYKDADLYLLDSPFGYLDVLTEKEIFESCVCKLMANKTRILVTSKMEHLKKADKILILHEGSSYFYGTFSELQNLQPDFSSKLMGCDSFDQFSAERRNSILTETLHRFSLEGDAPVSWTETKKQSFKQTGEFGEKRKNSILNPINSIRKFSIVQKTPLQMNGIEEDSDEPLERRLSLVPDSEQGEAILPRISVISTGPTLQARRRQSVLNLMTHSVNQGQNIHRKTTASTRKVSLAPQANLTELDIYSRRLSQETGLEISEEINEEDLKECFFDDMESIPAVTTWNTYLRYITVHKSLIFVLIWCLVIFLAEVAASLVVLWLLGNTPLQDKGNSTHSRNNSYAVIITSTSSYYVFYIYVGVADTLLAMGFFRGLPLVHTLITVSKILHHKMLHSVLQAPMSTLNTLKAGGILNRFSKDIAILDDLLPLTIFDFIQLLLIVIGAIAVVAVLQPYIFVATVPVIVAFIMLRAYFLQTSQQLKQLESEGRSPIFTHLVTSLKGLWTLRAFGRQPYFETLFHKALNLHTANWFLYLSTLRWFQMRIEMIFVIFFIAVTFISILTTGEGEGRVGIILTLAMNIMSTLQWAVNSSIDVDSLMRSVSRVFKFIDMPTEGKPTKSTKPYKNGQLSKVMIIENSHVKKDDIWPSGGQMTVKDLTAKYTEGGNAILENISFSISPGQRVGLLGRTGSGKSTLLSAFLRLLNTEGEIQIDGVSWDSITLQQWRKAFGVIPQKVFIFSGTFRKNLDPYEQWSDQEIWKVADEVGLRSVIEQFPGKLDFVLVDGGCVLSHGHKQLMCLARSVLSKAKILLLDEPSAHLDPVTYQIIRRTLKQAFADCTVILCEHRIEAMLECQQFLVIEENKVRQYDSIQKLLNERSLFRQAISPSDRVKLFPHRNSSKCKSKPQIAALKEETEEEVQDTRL

In general, EC50 refers to the concentration needed to bring the measured effect to its halfway point. In the case of `COC(=O)N1CCC2(CC1)CC(N1C(=O)c3cccc(c3)S(=O)(=O)Nc3cc(cc(-c4c(C)cccc4C)n3)OC[C@H]1CC(C)C)C2` [Compound 196, Methyl 2-[(11R)-6-(2,6-dimethylphenyl)-11-isobutyl-2,2,13-trioxo-9-oxa-2λ^6-thia-3,5,12-triazatricyclo[12.3.1.14,8]nonadeca-1(18),4(19),5,7,14,16-hexaen-12-yl]-7-azaspiro[3.5]nonane-7-carboxylate], the “Ent. A Max Activity (%)” value was “+++ (+++ is >60%)” and the EC50 is less than 1000 nM.
`Cc1cccc(C)c1-c1cc2nc(n1)NS(=O)(=O)c1cccc(c1)C(=O)N(C1CC3(CC3)C1)[C@@H](CC1(C(F)(F)F)CC1)CO2` [Compound 351]: the “Ent. A Max Activity (%)” value is “+ (+ is <300%)” and the 50% effective concentration (EC50) is less than 1000 nM.
For `Cc1cccc(C)c1-c1cc2nc(n1)NS(=O)(=O)c1cccc(c1)C(=O)N(C1CC3(COC3)C1)[C@H](CC(C)C)CO2` [Compound 29, (11R)-6-(2,6-Dimethylphenyl)-11-isobutyl-12-(2-oxaspiro[3.3]heptan-6-yl)-2,2-dioxo-9-oxa-2λ^6-thia-3,5,12,19-tetrazatricyclo[12.3.1.14,8]nonadeca-1(18),4(19),5,7,14,16-hexaen-13-one], in that order: “+++ (+++ is >60%)” and less than 1000 nM.
The matching figures for `Cc1cccc(C)c1-c1cc2nc(n1)NS(=O)(=O)c1cccc(c1)C(=O)N(C1CC3(CC3)C1)C(CC(F)(F)F)CO2` (single isomer, unassigned) [Compound 125, 6-(2,6-dimethylphenyl)-12-{spiro[2.3]hexan-5-yl}-11-(2,2,2-trifluoroethyl)-9-oxa-2λ^6-thia-3,5,12,19-tetraazatricyclo[12.3.1.14,8]nonadeca-1(17),4(19),5,7,14(18),15-hexaene-2,2,13-trione]: “++ (++ is 30-60%)” and less than 1000 nM.
The matching figures for `Cc1cccc(C)c1-c1cc2nc(n1)NS(=O)(=O)c1cccc(c1)C(=O)N(C1CC3(CCN(CCC(C)(C)C)CC3)C1)[C@H](CC(C)C)CO2` [Compound 340]: “+++ (+++ is >60%)” and less than 1000 nM.
With `Cc1cccc(C)c1-c1cc2nc(n1)NS(=O)(=O)c1cccc(c1)C(=O)N([C@H]1C[C@]3(CCN(C)C3)C1)[C@H](CC(C)C)CO2` [Compound 330], the “Ent. A Max Activity (%)” value is listed as “+++ (+++ is >60%)” and the EC50 is less than 1000 nM.
The matching figures for `CC(C)C[C@@H]1COc2cc(-c3ccccc3C(C)C)nc(n2)NS(=O)(=O)c2cccc(c2)C(=O)N1C1CC2(CCN(C(=O)OC(C)(C)C)CC2)C1` [Compound 12, tert-Butyl 2-[(11R)-11-isobutyl-6-(2-isopropylphenyl)-2,2,13-trioxo-9-oxa-2λ^6-thia-3,5,12,19-tetrazatricyclo[12.3.1.14,8]nonadeca-1(18),4,6,8(19),14,16-hexaen-12-yl]-7-azaspiro[3.5]nonane-7-carboxylate]: “++ (++ is 30-60%)” and less than 1000 nM.
With `COC(=O)N1CCCC2(CC(N3C(=O)c4cccc(c4)S(=O)(=O)Nc4nc(cc(-c5c(C)cccc5C)n4)OC[C@H]3CC(C)C)C2)C1` (some centres unmarked) [Compound 324], the “Ent. A Max Activity (%)” value is “+++ (+++ is >60%)” and the EC50 is less than 1000 nM.
In the case of `Cc1cccc(C)c1-c1cc2nc(n1)NS(=O)(=O)c1cccc(c1)C(=O)N(C1CC(C(=O)N3CCN(C)CC3)C1)[C@H](CC(C)C)CO2` (stereo partly drawn) [Compound 36, (11R)-6-(2,6-dimethylphenyl)-11-isobutyl-12-[3-(4-methylpiperazine-1-carbonyl)cyclobutyl]-2,2-dioxo-9-oxa-2λ^6-thia-3,5,12,19-tetrazatricyclo[12.3.1.14,8]nonadeca-1(18),4(19),5,7,14,16-hexaen-13-one], the “Ent. A Max Activity (%)” value is recorded as “+++ (+++ is >60%)” and the half-maximal effective concentration (EC50) is less than 1000 nM.
The matching figures for `CC(C)C[C@@H]1COc2cc(C3CCCCC3(C)C)nc(n2)NS(=O)(=O)c2cccc(c2)C(=O)N1C1CC2(CCNCC2)C1` (some centres unmarked) [Compound 399]: “+++ (+++ is >60%)” and less than 1000 nM.
